We go through two compounds from ChEMBL document CHEMBL2074375, “Comparison between isopropyl unoprostone and latanoprost by prostaglandin E(2)induction, affinity to prostaglandin transporter, and intraocular metabolism” (Exp Eye Res, 2002).

Molecules are shown by their SMILES.

This test deals with Solute carrier organic anion transporter family member 2A1 (Homo sapiens, UniProt Q92959). The experiment in a line: TP_TRANSPORTER: inhibition of PGE1 uptake (PGE1: 0.0004 uM) in PGT-expressing HeLa cells. The class given is functional, cell-based.

What is called Ki is a dissociation constant, usually derived from enzyme kinetics or from competition with a known ligand. Higher therefore signals a looser hold on the target.

Turning to `O=C(O)CCC/C=C\C[C@@H]1[C@@H](CC[C@@H](O)CCc2ccccc2)[C@H](O)C[C@@H]1O` [LATANOPROST ACID], the Ki stood at 149 nM.

`CC(C)OC(=O)CCC/C=C\C[C@@H]1[C@@H](CC[C@@H](O)CCc2ccccc2)[C@H](O)C[C@@H]1O` [LATANOPROST] registered a Ki greater than 10000 nM.
